The results in this text go back to patent publication US9060515B2, “Heterocyclic urea compounds” (BIOTA EUROPE LTD, priority 2011, dated 2015).

In one assay the test system is S. pyogenes (ATCC 51339). Description: Antibacterial susceptibility testing (MIC, broth microdilution or agar dilution), S. pyogenes. Format: cell-based. Conditions: Streptococcus pyogenes, ATCC51339; read-out: S. pyogenes (ATCC 51339) minimal inhibitory concentration (MIC). The protocol:
(§1) Compounds of the invention were tested for antimicrobial activity by susceptibility testing in liquid or on solid media. MICs for compounds against each strain were determined by the broth microdilution or agar dilution method according to the guidelines of the Clinical Laboratories and Standards Institute, formerly the National Committee for Clinical Laboratory Standards (Clinical Laboratories and Standards Institute. Methods for Dilution Antimicrobial Susceptibility Tests for Bacteria That Grow Aerobically; Approved Standard—Seventh Edition. Document M7-A7. CLSI, Wayne, Pa., 2006; Clinical Laboratories and Standards Institute. The Gram positive bacterial strains tested include S. aureus (Staphylococcus aureus (Isolate ID ATCC 29213)), E. faecalis (Enterococcus faecalis (Isolate ID ATCC 29212)) and S. pyogenes (Streptococcus pyogenes (Isolate ID ATCC 51339)). The Gram negative bacterial strains tested include H. influenzae (Haemophilus influenzae (Isolate ID ATCC 49247)).
(In general: In broth dilution the organism is exposed to a series of concentrations in liquid medium.)

The subject of a further assay is S. aureus (ATCC 29213). Description: Antibacterial susceptibility testing (MIC, broth microdilution or agar dilution), S. aureus. It is filed as cell-based. The conditions noted are these: Staphylococcus aureus, ATCC29213; read-out: S. aureus (ATCC 29213) minimal inhibitory concentration (MIC). The protocol:
as §1

SMILES strings stand for the structures. Values after ≈ are worked out from the molar mass of the structure shown.

`CCNC(=O)Nc1cc(Nc2ccccc2)c(C(=O)NCC)cn1` [Compound 8, N-Ethyl-6-(3-ethylureido)-4-(phenylamino)nicotinamide]: the MIC came to 16 µg/mL (≈ 48.9 µM) with S. pyogenes (ATCC 51339) and 32 µg/mL (≈ 97.7 µM) in the assay on S. aureus (ATCC 29213).
As for `CCNC(=O)Nc1cc(Nc2ccccc2)c(C(=O)Nc2ccnn2C)cn1` [Compound 10, 6-(3-Ethylureido)-N-(1-methyl-1H-pyrazol-5-yl)-4-(phenylamino)nicotinamide], the values for the MIC with S. pyogenes (ATCC 51339) and in the assay with S. aureus (ATCC 29213) were 2 µg/mL (≈ 5.27 µM) and 16 µg/mL (≈ 42.2 µM), respectively.
On to `CCNC(=O)Nc1cc(Nc2ccc(OC)cc2)c(C(=O)Nc2cccnc2)cn1` [Compound 14, 6-(3-Ethylureido)-4-(4-methaxyphenylamino)-N-(pyridin-3-yl)nicotinamide], for which the MIC came out at 2 µg/mL (≈ 4.92 µM) in the assay with S. pyogenes (ATCC 51339) and 4 µg/mL (≈ 9.84 µM) in the assay with S. aureus (ATCC 29213).
`CCNC(=O)Nc1cc(Nc2ccc(C(=O)OCC)cc2)c(C(=O)Nc2cccnc2)cn1` [Compound 15, Ethyl 4-(2-(3-ethylureido)-5-(pyridin-3-ylcarbamoyl)pyridin-4-ylamino)benzoate]: the MIC in the assay with S. pyogenes (ATCC 51339) and in the assay on S. aureus (ATCC 29213) was ≤ 1 µg/mL in each case.
In the case of `CCNC(=O)Nc1cc(Nc2ccc(C(=O)O)cc2)c(C(=O)Nc2cccnc2)cn1` [Compound 16, 4-(2-(3-Ethylureido)-5-(pyridin-3-ylcarbamoyl)pyridin-4-ylamino)benzoic acid], the MIC with S. pyogenes (ATCC 51339) was ≤ 1 µg/mL.
With `CCNC(=O)Nc1cc(Nc2ccccc2)c(C(=O)Nc2cccc(OC)c2)cn1` [Compound 32, 6-(3-ethylureido)-N-(3-methoxyphenyl)-4-(phenylamino)nicotinamide], the MIC was 8 µg/mL (≈ 19.7 µM) with S. pyogenes (ATCC 51339) and 4 µg/mL (≈ 9.87 µM) with S. aureus (ATCC 29213).
With `CCNC(=O)Nc1cc(Nc2ccccc2)c(C(=O)Nc2c(C)noc2C)cn1` [Compound 50, N-(3,5-dimethylisoxazol-4-yl)-6-(3-ethylureido)-4-(phenylamino)nicotinamide], the MIC in the assay with S. pyogenes (ATCC 51339) was 4 µg/mL (≈ 10.1 µM).
As for `CCNC(=O)Nc1cc(Nc2ccccc2)c(C(=O)Nc2ccnnc2)cn1` [Compound 64, 6-(3-ethylureido)-4-(phenylamino)-N-(pyridazin-4-yl)nicotinamide], the MIC in the assay on S. pyogenes (ATCC 51339) is ≤ 1 µg/mL.
Regarding `CCNC(=O)Nc1cc(Nc2ccccc2)c(C(=O)Nc2cncc(C(=O)O)c2)cn1` [Compound 84, 5-(6-(3-ethylureido)-4-(phenylamino)nicotinamido)nicotinic acid], the MIC in the assay on S. pyogenes (ATCC 51339) worked out at 16 µg/mL (≈ 38.1 µM).
As for `CCNC(=O)Nc1cc(Nc2cccc(C(=O)O)c2)c(C(=O)Nc2cccnc2)cn1` [Compound 87, 3-(2-(3-ethylureido)-5-(pyridin-3-ylcarbamoyl)pyridin-4-ylamino)benzoic acid], the MIC in the assay on S. pyogenes (ATCC 51339) was 8 µg/mL (≈ 19 µM).
For `CCNC(=O)Nc1cc(Nc2ccc(=O)n(C)c2)c(C(=O)Nc2cccnc2)cn1` [Compound 108, 6-(3-ethylureido)-4-(1-methyl-6-oxo-1,6-dihydropyridin-3-ylamino)-N-(pyridin-3-yl)nicotinamide], the MIC in the assay on S. pyogenes (ATCC 51339) amounted to 16 µg/mL (≈ 39.3 µM).
Take `CCNC(=O)Nc1cc(Nc2ccc(CC(=O)O)cc2)c(C(=O)Nc2cccnc2)cn1` [Compound 114, 2-(4-(2-(3-ethylureido)-5-(pyridin-3-ylcarbamoyl)pyridin-4-ylamino)phenyl)acetic acid]: the MIC with S. pyogenes (ATCC 51339) worked out at 8 µg/mL (≈ 18.4 µM).
Turning to `CCNC(=O)Nc1cc(Nc2ccc(C(=O)N(C)C)cc2)c(C(=O)Nc2cccnc2)cn1` [Compound 124, 4-(4-(dimethylcarbamoyl)phenylamino)-6-(3-ethylureido)-N-(pyridin-3-yl)nicotinamide], the MIC in the assay on S. pyogenes (ATCC 51339) is 4 µg/mL (≈ 8.94 µM).
For `CCNC(=O)Nc1cc(Nc2ccc(C(N)=O)cc2)c(C(=O)Nc2cccnc2)cn1` [Compound 125, 4-(4-carbamoylphenylamino)-6-(3-ethylureido)-N-(pyridin-3-yl)nicotinamide], in the assay on S. pyogenes (ATCC 51339), the MIC was ≤ 1 µg/mL.
Regarding `CCNC(=O)Nc1cc(Nc2ccc(C(=O)NC)cc2)c(C(=O)Nc2cccnc2)cn1` [Compound 126, 6-(3-ethylureido)-4-(4-(methylcarbamoyl)phenylamino)-N-(pyridin-3-yl)nicotinamide], the MIC with S. pyogenes (ATCC 51339) was found to be 2 µg/mL (≈ 4.61 µM).
With `CCNC(=O)Nc1cc(Nc2ccc(Cl)cc2)c(C(=O)Nc2ccc(N=[N+]=[N-])cc2)cn1` [Compound 132, N-(4-azidophenyl)-4-[(4-chlorophenyl)amino]-6-[(ethylcarbamoyl)amino]pyridine-3-carboxamide], the MIC with S. aureus (ATCC 29213) was 8 µg/mL (≈ 17.7 µM).
Turning to `CCNC(=O)Nc1cc(Nc2ccccc2)c(C(=O)Nc2ccc(C#CCO)cc2)cn1` [Compound 135, 6-[(Ethylcarbamoyl)amino]-N-[4-(3-hydroxyprop-1-yn-1-yl)phenyl]-4-(phenylamino)pyridine-3-carboxamide], the MIC in the assay with S. aureus (ATCC 29213) was ≤ 1 µg/mL.
Still for that read-out and setting: the figure for `CCNC(=O)Nc1cc(Nc2ccc(F)cc2)c(C(=O)Nc2cccnc2)cn1` [Compound 139] is ≤ 1 µg/mL; for `CCNC(=O)Nc1cc(Nc2ccc(C)cc2)c(C(=O)Nc2cccnc2)cn1` [Compound 140] it is ≤ 1 µg/mL.
Turning to `CCNC(=O)Nc1cc(Nc2cccc(C(F)(F)F)c2)c(C(=O)Nc2cccnc2)cn1` [Compound 141], the MIC in the assay on S. aureus (ATCC 29213) is ≤ 1 µg/mL.
The same measure, in the same setting: the figure for `CCNC(=O)Nc1cc(Nc2ccc(C(F)(F)F)cc2)c(C(=O)Nc2cccnc2)cn1` [Compound 142] is 2 µg/mL (≈ 4.5 µM); for `CCNC(=O)Nc1cc(Nc2cccc(F)c2)c(C(=O)Nc2cccnc2)cn1` [Compound 143] it is ≤ 1 µg/mL.
With `CCNC(=O)Nc1cc(Nc2ccccc2F)c(C(=O)Nc2cccnc2)cn1` [Compound 144], the MIC with S. aureus (ATCC 29213) was ≤ 1 µg/mL.
Regarding `CCNC(=O)Nc1cc(Nc2ccc(OC)nc2)c(C(=O)Nc2cccnc2)cn1` [Compound 145], in the assay on S. aureus (ATCC 29213), the MIC stood at 4 µg/mL (≈ 9.82 µM).
The same measure, in the same setting: to `CCNC(=O)Nc1cc(Nc2cccnc2)c(C(=O)Nc2ccc(CCC(=O)OC)cc2)cn1` [Compound 147] belongs 4 µg/mL (≈ 8.65 µM).
With `CCNC(=O)Nc1cc(Nc2cccnc2)c(C(=O)Nc2ccc(CCC(=O)O)cc2)cn1` [Compound 153, 3-{4-[({6-[(ethylcarbamoyl)ami-no]-4-(pyridin-3-ylamino)pyridin-3-yl}carbonyl)amino]phenyl}pro-opanoic acid], the MIC with S. aureus (ATCC 29213) was 16 µg/mL (≈ 35.7 µM).
Take `CCNC(=O)Nc1cc(Nc2cccnc2)c(C(=O)Nc2ccc(NCC3(C(=O)OC)CCC3)nc2)cn1` [Compound 156, methyl 1-[({5-[({6-[(ethylcarbamoyl)amino]-4-(pyridin-3-ylamino)pyridin-3-yl}carbonyl)amino]pyridin-2-yl}amino)methyl]cyclobutane carboxylate]: the MIC in the assay with S. aureus (ATCC 29213) was found to be 16 µg/mL (≈ 30.9 µM).
Consider `CCNC(=O)Nc1cc(Nc2cncc(C)c2)c(C(=O)Nc2cccnc2)cn1` [Compound 157], for which, in the assay with S. aureus (ATCC 29213), the MIC was found to be 8 µg/mL (≈ 20.4 µM).
Regarding `CCNC(=O)Nc1cc(Nc2ccnc(C)c2)c(C(=O)Nc2cccnc2)cn1` [Compound 162], the MIC in the assay with S. aureus (ATCC 29213) came to 8 µg/mL (≈ 20.4 µM).
For `CCNC(=O)Nc1cc(Nc2ccc(Cl)cc2)c(C(=O)Nc2cnc(NC3(C(=O)O)CCC3)nc2)cn1` [Compound 165, 1-({5-[({4-[(4-chlorophenyl)amino]-6-[(ethylcarbamoyl)amino]pyridin-3-yl}carbonyl)amino]pyrimidin-2-yl}amino) cyclobutanecarboxylic acid], the MIC in the assay on S. aureus (ATCC 29213) stood at 16 µg/mL (≈ 30.5 µM).
Consider `CCNC(=O)Nc1cc(Nc2ccc(C)nc2)c(C(=O)Nc2cccnc2)cn1` [Compound 167], for which the MIC with S. aureus (ATCC 29213) worked out at 16 µg/mL (≈ 40.9 µM).
For `CCNC(=O)Nc1cc(Nc2cccnc2)c(C(=O)Nc2ccc(CC(C)(C)C(=O)OC)cc2)cn1` [Compound 170, methyl 3-{4-[({6-[(ethylcarbamoyl)amino]-4-(pyridin-3-ylamino)pyridin-3-yl}carbonyl)amino]phenyl}-2,2-dimethylpropanoate], the MIC in the assay with S. aureus (ATCC 29213) was ≤ 1 µg/mL.
In the case of `CCNC(=O)Nc1cc(Nc2cncc(OC)c2)c(C(=O)Nc2cccnc2)cn1` [Compound 174], in the assay on S. aureus (ATCC 29213), the MIC is 4 µg/mL (≈ 9.82 µM).
Turning to `CCNC(=O)Nc1cc(Nc2ccc(Cl)cc2)c(C(=O)Nc2ccc(C#CC(C)(C)O)cc2)cn1` [Compound 185, 4-[(4-chlorophenyl)amino]-6-[(ethylcarbamoyl)amino]-N-[4-(3-hydroxy-3-methylbut-1-yn-1-yl)phenyl]pyridine-3-carboxamide], the MIC in the assay with S. aureus (ATCC 29213) is 8 µg/mL (≈ 16.3 µM).
As for `CNC(=O)Nc1cc(Nc2ccccc2)c(C(=O)Nc2ccc(CCC(=O)O)cc2)cn1` [Compound 186, 3-{4-[({6-[(methylcarbamoyl)amino]-4-(phenylamino)pyridin-3-yl}carbonyl)amino]phenyl}propanoic acid], in the assay on S. aureus (ATCC 29213), the MIC came out at 32 µg/mL (≈ 73.8 µM).
Consider `CCNC(=O)Nc1cc(Nc2cccnc2)c(C(=O)Nc2ccc([C@@H]3C[C@H]3C(=O)O)cc2)cn1` [Compound 193], for which the MIC with S. aureus (ATCC 29213) worked out at 32 µg/mL (≈ 69.5 µM).
The same measure, in the same setting: the figure for `CCNC(=O)Nc1cc(Nc2ccc(Cl)cc2)c(C(=O)Nc2ccc(-n3cc(CN)nn3)cc2)cn1` [Compound 194, N-{4-[4-(aminomethyl)-1H-1,2,3-triazol-1-yl]phenyl}-4-[(4-chlorophenyl)amino]-6-[(ethylcarbamoyl)amino]pyridine-3-carboxamide] is 8 µg/mL (≈ 15.8 µM); for `CCNC(=O)Nc1cc(Nc2ccc(OC)cc2)c(C(=O)Nc2ccc(CC(C)(C)C(=O)O)cc2)cn1` [Compound 208, 3-{4-[({6-[(ethylcarbamoyl)amino]-4-[(4-methoxyphenyl)amino]pyridin-3-yl}carbonyl)amino]phenyl}-2,2-dimethylpropanoic acid] it is ≤ 1 µg/mL.
For the compound `CCNC(=O)Nc1cc(Nc2cc(F)cc(F)c2)c(C(=O)Nc2ccc(Cc3nnn[nH]3)cc2)cn1` [Compound 209, 4-(3,5-difluoroanilino)-6-(ethylcarbamoylamino)-N-[4-(1H-tetrazol-5-ylmethyl)phenyl]pyridine-3-carboxamide], the MIC in the assay with S. aureus (ATCC 29213) is ≤ 1 µg/mL.
